Measured values reported in patent US20110162097A1, “NUCLEOTIDE SEQUENCE ENCODING AN ALCOHOL DEHYDROGENASE FROM ARTEMISIA ANNUA AND USES THEREOF” (priority 2008, published 2011).

Legend:
Plasmodium falciparum = conditions: reported to be more active than artesunate; cited from earlier work
[1] = target: T1, ADH1 (Artemisia annua alcohol dehydrogenase) (Artemisia annua, UniProt A0A2U1Q018, G20S/L19S/V78I); assay: Specific ADH1 activity enzyme assay (crude protein from E. coli, NAD+, GC/MS analysis); format: biochemical; conditions: 1 mM NAD+, 0.1 μg/μl substrate, approximately 90 μg crude protein, 30° C., 30 minutes
T1 construct: 6xHis (N-terminal tag and attB linker encoded by pDEST17); made in house; host or cells: E. coli Rosetta (DE3)
Procedure: The Gateway vector pDEST17 had the Adh1 gene inserted and was subsequently transformed into a competent expression E. coli strain Rosetta (DE3). These cells were grown overnight in 3 ml of LB broth amended with 100 μg/ml ampicillin. An aliquot of 1 ml overnight culture was sub cultured to 100 ml of fresh LB broth also amended with 100 μg/ml of ampicillin. The culture was incubated at 37° C. until the optical density reached 0.8 at 600 nm. A final concentration of 1 mM IPTG was then added to the culture and the flask was incubated at 30° C. for another 4 hours. Cells were harvested by centrifugation at 10,000 rcf for 10 minutes. Pelleted cells were resuspended in 20 mM sodium phosphate pH 7.4 and 500 mM NaCl. Cell walls were disrupted by sonication on ice at intervals of 0.7 seconds for 1 minute, followed by a 1 minute cool down this was repeated three times. The sonicated cells were centrifuged at 10,000 rcf for 10 minutes; the supernatant which contained the soluble ADH1 was concentrated and desalted by spin dialysis (using Amicon Ultra-15 devices; Millipore, Mass.), and stored in a new tube at 4° C. This method of recombination and expression was also used for a control plasmid pDEST17-gus.
Enzyme assay was prepared to determine the specific activity of ADH1. […]

T1 sequence (A0A2U1Q018 whole entry L19S/G20S/V78I): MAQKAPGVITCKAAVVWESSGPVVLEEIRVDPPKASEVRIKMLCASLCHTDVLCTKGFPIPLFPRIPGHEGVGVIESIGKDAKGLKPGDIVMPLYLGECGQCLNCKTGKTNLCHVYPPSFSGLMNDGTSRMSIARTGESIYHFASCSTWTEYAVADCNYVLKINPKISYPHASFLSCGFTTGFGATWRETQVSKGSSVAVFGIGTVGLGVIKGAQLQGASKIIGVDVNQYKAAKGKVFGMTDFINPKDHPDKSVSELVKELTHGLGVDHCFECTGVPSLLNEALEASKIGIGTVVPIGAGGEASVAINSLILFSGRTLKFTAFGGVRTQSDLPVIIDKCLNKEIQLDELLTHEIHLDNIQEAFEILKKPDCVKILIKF

C[C@H]1[C@H](N2CCS(=O)(=O)CC2)O[C@@H]2O[C@@]3(C)CC[C@H]4[C@H](C)CC[C@@H]1[C@@]24OO3 [Artemisone]
activity relative to artesunate (Plasmodium falciparum): 10-30 fold

C=C(CO)[C@@H]1CC[C@@H](C)[C@@H]2CCC(C)=C[C@@H]21 [artemisinic alcohol]
oxidation of substrate by ADH1 (product observed by GC/MS) [1]: presence of product artemisinic aldehyde

CC1=C[C@H]2[C@@H](CC1)[C@H](C)CC[C@H]2[C@@H](C)CO [dihydroartemisinic alcohol, (11R)-dihydroartemisinic alcohol]
oxidation of substrate by ADH1 (product observed by GC/MS) [1]: no observed product
